This is an account of results in ChEMBL document CHEMBL1121535, “Stereochemical requirements for cannabinoid activity” (J Med Chem, 1980).

Holding throughout (format): functional, organism-based
Holding throughout (conditions): Cercopithecidae

The test system of experiment [1] is Monkey. The experiment can be described thus: The compound was evaluated for the rating of psychotropic effects in rhesus monkey at a dose of 1 mg/Kg; value is (-) No change.
The test system of experiment [2] is Monkey. Put plainly: The compound was evaluated for the rating of psychotropic effects in rhesus monkey at a dose of 5 mg/Kg; value is (-) No change.
The subject of experiment [3] is Monkey. The experiment can be described thus: The compound was evaluated for the rating of psychotropic effects in rhesus monkey at a dose of 2 mg/Kg; value is (+) drowsiness, decreased motor activity, occasional partial ptosis, occasional head drop.
For experiment [4], the system named is Monkey. Put plainly: The compound was evaluated for the rating of psychotropic effects in rhesus monkey at a dose of 1 mg/Kg; value is (++) stupor, ataxia, suppression of motor activity, full ptosis.
The subject of experiment [5] is Monkey. Put plainly: The compound was evaluated for the rating of psychotropic effects in rhesus monkey at a dose of 0.5 mg/Kg; value is (+) drowsiness, decreased motor activity, occasional partial ptosis, occasional head drop.
Experiment [6] concerns Monkey. The experiment can be described thus: The compound was evaluated for the rating of psychotropic effects in rhesus monkey at a dose of 0.25 mg/Kg; value is (-) No change.
For experiment [7], the system named is Monkey. The experiment can be described thus: The compound was evaluated for the rating of psychotropic effects in rhesus monkey at a dose of 0.05 mg/Kg; value is (-) No change.
Experiment [8] deals with Monkey. Put plainly: The compound was evaluated for the rating of psychotropic effects in rhesus monkey at a dose of 0.1 mg/Kg; value is (++) stupor, ataxia, suppression of motor activity, full ptosis.
Experiment [9] has as its system Monkey. Put plainly: The compound was evaluated for the rating of psychotropic effects in rhesus monkey at a dose of 0.25 mg/Kg; value is (++) stupor, ataxia, suppression of motor activity, full ptosis.
In experiment [10] the test system is Monkey. The experiment can be described thus: The compound was evaluated for the rating of psychotropic effects in rhesus monkey at a dose of 2 mg/Kg; value is (++) stupor, ataxia, suppression of motor activity, full ptosis.
In experiment [11] the test system is Monkey. The experiment can be described thus: The compound was evaluated for the rating of psychotropic effects in rhesus monkey at a dose of 2 mg/Kg; value is (-) No change.
Experiment [12] relates to Monkey. The experiment can be described thus: The compound was evaluated for the rating of psychotropic effects in rhesus monkey at a dose of 5 mg/Kg; value is (+) drowsiness, decreased motor activity, occasional partial ptosis, occasional head drop.
For experiment [13], the system named is Monkey. The experiment can be described thus: The compound was evaluated for the rating of psychotropic effects in rhesus monkey at a dose of 0.5 mg/Kg; value is (++) stupor, ataxia, suppression of motor activity, full ptosis.
Experiment [14] deals with Monkey. The experiment can be described thus: The compound was evaluated for the rating of psychotropic effects in rhesus monkey at a dose of 0.1 mg/Kg; value is (+/-) tranquility.

Each structure is given as a SMILES string. Active and inactive are the calls of the source. The rule behind the calls is not given here.

As to `CCCCCc1cc(O)c2c(c1)OC(C)(C)[C@@H]1CC(O)[C@H](C)CC21` (stereo not given in full), the result in the experiment on Monkey [1] and in the experiment on Monkey [2] was inactive.

`CCCCCc1cc(O)c2c(c1)OC(C)(C)[C@@H]1CC[C@H](C)CC21` (stereo not given in full): the outcome in the experiment with Monkey [1] was inactive. For the same compound, in the experiment on Monkey [3], the Activity entry is recorded as “drowsiness, decreased motor activity, occasional partial ptosis, occasional head drop”.

In the case of `CCCCCc1cc(OC(C)=O)c2c(c1)OC(C)(C)[C@@H]1CCC(COC(C)=O)CC21` (stereo not given in full), the Activity result with Monkey [4] is recorded as “drowsiness, decreased motor activity, occasional partial ptosis, occasional head drop”; in the experiment on Monkey [5], “drowsiness, decreased motor activity, occasional partial ptosis, occasional head drop”.

On to `CCCCCc1cc(O)c2c(c1)OC(C)(C)[C@@H]1CC[C@H](C)C(O)C21` (stereo not given in full), for which the outcome in the experiment on Monkey [1] and with Monkey [2] was inactive.

As for `CCCCCc1cc(O)c2c(c1)OC(C)(C)[C@@H]1C[C@H](O)[C@H](C)CC21` (stereo not given in full), the Activity result is “drowsiness, decreased motor activity, occasional partialptosis,occasional head drop” in the experiment on Monkey [4] and “drowsiness, decreased motor activity, occasional partialptosis,occasional head drop” in the experiment with Monkey [5]. In addition, the result in the experiment on Monkey [6] was inactive.

With `CCCCCc1cc(O)c2c(c1)OC(C)(C)[C@@H]1CCC(C)=C[C@@H]21`, the outcome with Monkey [7] was inactive. Further, the outcome with Monkey [8] and with Monkey [9] was Active.

On to `CCCCCc1cc(O)c2c(c1)OC(C)(C)[C@@H]1CC[C@H](C)[C@H](O)C21` (stereo not given in full), for which the Activity result in the experiment with Monkey [4] is “drowsiness, decreased motor activity, occasional partial ptosis, occasional head drop”; in the experiment on Monkey [10] it was “drowsiness, decreased motor activity, occasional partial ptosis, occasional head drop”; with Monkey [5] it was “drowsiness, decreased motor activity, occasional partial ptosis, occasional head drop”.

As to `CCCCCc1cc(OC(C)=O)c2c(c1)OC(C)(C)[C@@H]1CC[C@H](COC(C)=O)CC21` (stereo not given in full), the result in the experiment on Monkey [1] and in the experiment on Monkey [2] was inactive.

As to `CCCCCc1cc(O)c2c(c1)OC(C)(C)[C@@H]1CCC(C)[C@H](O)C21` (stereo not given in full), the result in the experiment on Monkey [1] and in the experiment on Monkey [11] was inactive. Moreover, in the experiment with Monkey [12], the Activity result is recorded as “drowsiness, decreased motor activity, occasional partial ptosis, occasional head drop”.

As for `CCCCCc1cc(O)c2c(c1)OC(C)(C)[C@@H]1CC[C@@H](C)CC21` (stereo not given in full), the Activity result in the experiment with Monkey [13] is “stupor,ataxia, suppression of motor activity, full ptosis”; with Monkey [14], “+/-”.

In the case of `CCCCCc1cc(O)c2c(c1)OC(C)(C)[C@@H]1C[C@H](O)C(C)CC21` (stereo not given in full), the outcome in the experiment with Monkey [1], with Monkey [11] and with Monkey [2] was inactive.

On to `CCCCCc1cc(O)c2c(c1)OC(C)(C)[C@@H]1CC=C(C)CC21` (stereo not given in full), for which the result in the experiment with Monkey [13] and with Monkey [9] was Active. For the same compound, the result with Monkey [14] was inactive.
